Measurements taken from ChEMBL document CHEMBL1151575, “J-104,123, a novel and orally-active inhibitor of squalene synthase: Stereoselective synthesis and cholesterol lowering effects in dogs” (Bioorg Med Chem Lett, 1996).

Tests used:
Squalene synthase = molecular target: T1, Squalene synthase (Homo sapiens, UniProt P37268); assay: Inhibitory activity against squalene synthase (SQS) obtained from HepG2 cells; type: cell-based
T1 sequence (P37268 whole entry): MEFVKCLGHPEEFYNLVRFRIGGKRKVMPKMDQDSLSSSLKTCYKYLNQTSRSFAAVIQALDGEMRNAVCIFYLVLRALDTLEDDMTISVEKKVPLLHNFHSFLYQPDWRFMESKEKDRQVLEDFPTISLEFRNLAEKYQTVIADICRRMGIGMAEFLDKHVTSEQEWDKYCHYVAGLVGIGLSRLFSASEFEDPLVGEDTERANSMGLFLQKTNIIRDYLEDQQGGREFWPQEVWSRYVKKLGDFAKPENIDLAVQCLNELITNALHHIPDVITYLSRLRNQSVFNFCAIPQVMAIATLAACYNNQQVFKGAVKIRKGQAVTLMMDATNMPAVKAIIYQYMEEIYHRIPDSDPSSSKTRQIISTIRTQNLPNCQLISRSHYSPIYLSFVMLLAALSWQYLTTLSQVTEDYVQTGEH

[1] = Area under the curve for compound was evaluated in dog at a dose of 10 mg/kg.; type: ADME, organism-based, Canis lupus familiaris; design: dose 10 mg/kg; settings: in vivo
[2] = Area under the curve for compound was evaluated in dog at a dose of 20 mg/kg.; type: ADME, organism-based, Canis lupus familiaris; design: dose 20 mg/kg; settings: in vivo

C[C@@H](CC(=O)O)CC(=O)N[C@@H](C)[C@@H](Cc1ccc(Cl)c(Cl)c1)c1ccc(-c2ccccc2)c(F)c1 gave an IC50 (Squalene synthase) of 3.9 nM and an AUC [1] of 9900 ng·h/mL.
In the case of C[C@@H](CC(=O)O)CC(=O)N[C@@H](C)[C@H](/C=C/c1ccc2ccccc2c1)Cc1ccc(Cl)c(Cl)c1, the AUC [2] is reported as 54000 ng·h/mL and the IC50 (Squalene synthase) is reported as 2.5 nM.
With C[C@H](NC(=O)C[C@@H](CC(=O)O)C(=O)O)[C@@H](Cc1ccc(Cl)c(Cl)c1)c1ccc(-c2ccccc2)c(F)c1 the AUC [2] was 900 ng·h/mL.
